Laboratory results from US20110206685A1, “SCREENING ASSAYS FOR INHIBITORS OF A STAPHYLOCOCCUS AUREUS SIDEROPHORE” (priority 2004, published 2011).

Columns and labels:
Assay type in all cases: cell-based, Staphylococcus aureus
[1] = tested on: sbnB::Tet mutant; details: iron-restricted media / serum
Description: SbnB encodes a putative ornithine cyclodeaminase and may work in concert with SbnA to produce L-2,3-diaminopropionic acid, a likely precursor for staphylobactin. Ornithine cyclodeaminases mediate the deamination of ornithine and cyclization to proline and depended on NAD+. A mutation in sbnB was created by insertion of a Tet cassette. […] While proline is unlikely to be a siderophore precursor, ammonia may be a desired product for staphylobactin biosynthesis. […] Further, we observed in a mouse kidney abscess experiment, sbnB deficient strains were compromised for virulence (data not shown, n=7 mice).

[2] = tested on: sbnD mutant and wild type strains; assay: MIC comparison of sbnD mutant and wild type strains; details: sbnD::Km mutant versus wild type
Description: SbnD encodes a putative multi-drug efflux pump. A mutation in sbnD was created by insertion of a Km cassette.

[3] = tested on: S. aureus RN6390; assay: Siderophore plate bioassay (promotion of iron-restricted growth); details: HPLC-isolated peak from culture supernatant of RN6390 fur::Km; TMS medium with 20 μM EDDHA
Protocol: The ability of siderophores to promote the iron-restricted growth of S. aureus was assessed using siderophore plate bioassays, performed as previously described (Sebulsky et al., (2000) J. Bacteriol. 182:4394-4400). Briefly, S. aureus RN6390 was incorporated into solid TMS medium (1.4×10^4 cells/ml) containing 20 μM EDDHA. The ability of purified siderophores to promote growth of S. aureus was assessed after incubation of plates for 36 hours at 37° C.

Compound | rescue of the iron-restricted growth phenotype of the sbnB mutant by added compound [1] | difference in MIC (minimum inhibitory concentration) values between sbnD mutant and wild type strains [2] | also measured
NCC(N)C(=O)O (centres unmarked) [diaminopropionic acid] | can be overcome |  | 
CCn1cc(C(=O)O)c(=O)c2ccc(C)nc21 [nalidixic acid] |  | No difference | 
CCn1cc(C(=O)O)c(=O)c2cc(F)c(N3CCNCC3)cc21 [norfloxacin] |  | No difference | 
O=C(O)[C@@H]1CCCN1 [proline] | does not bypass the sbnB mutation |  | 
staphylobactin |  |  | biological activity in siderophore plate bioassays (promotion of iron-restricted growth of S. aureus) [3]: retained biological activity
